Laboratory results as given in patent publication US11583525B2, “Geranylgeranyltransferase I inhibitor for treatment of a PTEN defective cancer” (H. LEE MOFFITT CANCER CENTER AND RESEARCH INSTITUTE, INC., priority 2017, dated 2023).
Peptide text beside a SMILES is read from it. * marks the point of attachment. Cbz = O=C(OCc1ccccc1)*

Key:
Ca2+ mobilization = assay: Cytosolic Ca2+ mobilization measured with aequorin in NHFs in response to ATP; assay type: cell-based, human; conditions: NHFs re-stimulated with serum for one hour; ATP stimulation
Description: FIGS. 7A, 7B, 7C, 7D, 7E, 7F, 7G, 7H, and 7I show FBXL2 controls Ca2+ mobilization and Ca2+-mediated apoptosis. […] Quantification of three independent experiments is shown and represented as percentage increase compared to EXP cells, which were set as 100%. P values were calculated by one-way ANOVA and multiple-comparisons test. Error bars indicate s.e.m. […] Quantifications and P value analyses was performed as in a. […] On the left, representative traces. On the right, quantification of three independent experiments. P values were calculated by a one-way ANOVA and multiple-comparisons test. Error bars indicate s.e.m. […] Concentrations of cytosolic (7d) and mitochondrial (7e) Ca2+ were measured with the appropriate aequorin in response to agonist stimulation (ATP). […] On the right, quantifications of three independent experiments. P values were calculated by one-way ANOVA and multiple-comparisons test. […] P values were calculated by unpaired t-test. […] Induction of cell death was evaluated after treatment with H2O2 using automated nuclei count analysis of twenty randomly chosen fields. P values were calculated by one-way ANOVA and multiple-comparisons test. […] Left, representative traces showing concentrations of mitochondrial Ca2+ measured with mitochondrial targeted aequorin. Right, quantification of three independent experiments. P values were calculated by one-way ANOVA and multiple-comparisons test. […]

IP3R3 = IP3R3 stability by immunoblotting in NHFs, HeLa and HEK293T cells incubated with GGTi-2418; assay type: cell-based, human; conditions: HeLa, HEK293T cells, 10-15 μM GGTi-2418, NHFs 30 h then cycloheximide and ATP
Description: FIGS. 6A, 6B, 6C, 6D, 6E, 6F, 6G, and 6H that the degradation of IP3R3 is dependent on FBXL2 localization to cell membranes and on the segregase activity of p97. […] Live cell imaging was carried out with an LSM510 confocal microscope using a 63× objective. Scale bars, 10 μm. […] Cells were subsequently harvested at the indicated times for immunoblotting. […] Cells were subsequently harvested for immunoblotting. This experiment was performed once. […] The bracket on the right marks a ladder of bands which, presumably, are ubiquitinated species of IP3R3 that are not degraded when p97 is inhibited. […] Cells were subsequently stimulated with medium containing serum and harvested at the indicated time points for immunoblotting. […] Error bars indicate s.e.m. […] Thus, we propose that, after its FBXL2-mediated ubiquitination, IP3R3 is extracted from cell membranes by the segregase activity of p97 to be degraded by the proteasome. […] 24 h post-transfection, cells were treated with MG132 for 3 h before harvesting for immunoprecipitation and immunoblotting as indicated. This experiment was performed twice. […] Samples were analysed by immunoblotting with the indicated antibodies. […]
Cell culture and transfections. […] All cells grown in culture were periodically monitored for mycoplasma contamination. […]

SMILES | serum-mediated decrease in Ca2+ mobilization (Ca2+ mobilization) | IP3R3 stability (IP3R3)
CC(C)C[C@@H](C=O)NC(=O)[C@H](CC(C)C)NC(=O)[C@H](CC(C)C)NC(=O)OCc1ccccc1 [MG132] (Cbz-Leu-Leu-Leu-aldehyde) | inhibited the serum-mediated decrease in Ca2+ mobilization | –
Cc1nc[nH]c1CN1CCN(C(=O)N[C@@H](CC(C)C)C(=O)O)[C@@H](Cc2ccccc2)C1=O [GGTi-2418] | inhibited the serum-mediated decrease in Ca2+ mobilization | stabilizes IP3R3
